{"source": "patent US20230355605A1", "about": "“DRUG FOR ENHANCING FIBRINOLYTIC SYSTEM, AND USE THEREFOR” (priority 2020, published 2023)", "key": {"[1]": {"tested_on": "conscious cynomolgus monkeys", "experiment": "Effect on cardiovascular and respiratory system (telemetry, blood gas)", "assay_type": "in vivo, cynomolgus monkey", "conditions": "single oral dose, up to 300 mg/kg", "procedure": "The effect of the present compound on the cardiovascular system and the respiratory system was examined by a telemetry method and blood gas measurement using conscious cynomolgus monkeys. Systemic exposure of the test substance was also evaluated. Specifically, a control substance (a 0.5 w/v% carmellose sodium aqueous solution) and the present compound were orally administered at single ascending dosages at intervals of 7 days, and the heart rate, blood pressure (systolic blood pressure, diastolic blood pressure, and mean blood pressure), electrocardiogram (PR interval, QRS duration, QT interval, and QTc interval), respiratory rate, and body temperature were measured before administration and 1, 2, 4, 6, and 24 hours after administration on each administration day with the monkeys unanesthetized and unrestrained. Furthermore, before administration and 2, 6, and 24 hours after administration on each administration day, arterial blood was collected, and blood gases (oxygen partial pressure, carbon dioxide partial pressure, pH, and oxygen saturation) were measured. Systemic exposure was also evaluated by measuring the concentration of the test substance in plasma."}, "rats": {"tested_on": "rats", "experiment": "4-week repeated oral dose toxicity study in rats", "assay_type": "in vivo"}, "male Crl:CD(SD) rats": {"tested_on": "male Crl:CD(SD) rats", "experiment": "Effect on central nervous system (functional observational battery)", "assay_type": "in vivo, rat", "conditions": "single oral dose, up to 300 mg/kg", "procedure": "The effect of the present compound on the central nervous system was examined by the functional observational battery (FOB) in rats, using male Crl:CD(SD) rats. Specifically, the present compound was orally administered to the rats in a single dose, and the rats were observed before administration and 0.5, 1, 2, 4, 8, and 24 hours after administration. To a control group (six rats), a 0.5 w/v% carmellose sodium aqueous solution (vehicle) was administered instead of the present compound in the same manner. […] Thus, it was considered that the present compound has no effect on the central nervous system up to a dosage of 300 mg/kg in single oral dose administration using rats."}, "[2]": {"tested_on": "patients with COVID-19 pneumonia (mild to moderate)", "experiment": "Effectiveness study for COVID-19 pneumonia (exploratory early phase II study)", "assay_type": "in vivo, human", "excerpt": "The effect of the present compound to prevent the aggravation of COVID-19 pneumonia and its safety were explored.\nOccurrence of transition to oxygen supply treatment under mechanical ventilation after the oral administration of the present compound (occurrence of deterioration of oxygenation)\n• (a) Survival for 28 days from the start of administration of the present compound • (b) Duration of hospitalization after the start of administration of the present compound • (c) Number of days required for oxygen administration after the start of administration of the present compound (d) Changes in the proportion of lesions in the lung field on chest CT images before and after the administration of the present compound\nOccurrence of adverse events after the start of administration of the present compound until the end of observation"}, "[3]": {"tested_on": "rat model of ferric chloride-induced carotid thrombosis", "experiment": "Rat model of ferric chloride-induced carotid thrombosis", "assay_type": "in vivo", "conditions": "0.3, 1, 3 mg/kg oral", "procedure": "The evaluation of the antithrombotic effect was performed according to the method described in Test Example 3 of WO2010/113022. Specifically, two hours before the procedure, the present compound suspended in a 0.5% sodium carboxymethylcellulose (CMC-Na) aqueous solution was orally administered to test groups of rats at dosages of 0.3, 1, and 3 mg/kg. […] Under anesthesia, ferric chloride was applied to a carotid artery of each rat to induce thrombus formation by damaging the blood vessel, and the time from thrombus formation to occlusion of the carotid artery (occlusion time) up to 30 minutes was measured with a Doppler blood flowmeter. Occlusion of the blood flow was defined as a state in which the average blood flow indicated zero on the chart.\nThe bleeding effect was also evaluated by measuring the bleeding time. The bleeding time was measured in the same rats as above by sticking the tail of each rat with an animal lancet 20 minutes after the ferric chloride treatment and then observing the presence or absence of blood adhered to filter paper every 30 seconds. The time until bleeding stopped (bleeding time) was used as an index of bleeding."}, "[4]": {"conditions": "30, 60, 120, 250 mg/kg/day oral, 4 weeks"}, "[5]": {"conditions": "120 to 180 mg/day oral, 14 days"}, "[6]": {"conditions": "after the start of administration, excluding undescribed and discontinued cases"}, "[7]": {"conditions": "start of administration to end of observation, 26 patients"}}}
{"compound": "O=C(Nc1ccc(Cl)cc1C(=O)[O-])c1cccc(-c2cccc3cccnc23)c1.[Na+]", "note": "[present compound, sodium 5-chloro-2-({ [3-(quinolin-8-yl)phenyl]carbonyl}amino)benzoate]", "values": [{"measurement": "effect on the cardiovascular system or the respiratory system", "setting": "[1]", "result": "no effect"}, {"measurement": "deaths during the administration period", "setting": "rats; [4]", "result": "No deaths"}, {"measurement": "effect on general condition, body weight, food consumption, ophthalmology, ECG, hematology, urinalysis, necropsy, organ weights", "setting": "rats; [4]", "result": "No effect"}, {"measurement": "no-observed-adverse-effect level", "setting": "rats; rats, males and females, 4-week repeated oral dose", "result": 250, "unit": "mg/kg/day"}, {"measurement": "effect on the central nervous system", "setting": "male Crl:CD(SD) rats", "result": "no effect"}, {"measurement": "deterioration of oxygenation requiring mechanical ventilation", "setting": "[2]; [5]", "result": "no cases"}, {"measurement": "number of days required for oxygen administration after the start of administration", "setting": "[2]; [5]", "result": "gradually decreased"}, {"measurement": "survival for 28 days from the start of administration", "setting": "[2]; [5]", "result": "all cases survived"}, {"measurement": "adverse events in patients concomitantly treated with Remdesivir, Avigan, inhaled steroid or antiplatelet agent", "setting": "[2]; Remdesivir 8, Avigan 5, inhaled steroid 22, antiplatelet agent 5 cases", "result": "no adverse events requiring treatment"}, {"measurement": "Number of cases with duration of hospitalization 8 to 12 days", "setting": "[2]; [6]", "result": 5}, {"measurement": "Number of cases with duration of hospitalization 13 to 17 days", "setting": "[2]; [6]", "result": 12}, {"measurement": "Number of cases with duration of hospitalization 18 to 22 days", "setting": "[2]; [6]", "result": 4}, {"measurement": "number of cases, oxygen dosage 0 L/day", "setting": "[2]; day 1", "result": 3}, {"measurement": "number of cases, oxygen dosage 2 or less L/day", "setting": "[2]; day 1", "result": 12}, {"measurement": "number of cases, oxygen dosage 5 or more L/day", "setting": "[2]; day 1", "result": 3}, {"measurement": "number of cases, oxygen dosage More than 2 less than 5 L/day", "setting": "[2]; day 1", "result": 5}, {"measurement": "number of cases, oxygen dosage 0 L/day", "setting": "[2]; day 2", "result": 3}, {"measurement": "number of cases, oxygen dosage 2 or less L/day", "setting": "[2]; day 2", "result": 12}, {"measurement": "number of cases, oxygen dosage 5 or more L/day", "setting": "[2]; day 2", "result": 2}, {"measurement": "number of cases, oxygen dosage More than 2 less than 5 L/day", "setting": "[2]; day 2", "result": 6}, {"measurement": "number of cases, oxygen dosage 0 L/day", "setting": "[2]; day 3", "result": 4}, {"measurement": "number of cases, oxygen dosage 2 or less L/day", "setting": "[2]; day 3", "result": 13}, {"measurement": "number of cases, oxygen dosage 5 or more L/day", "setting": "[2]; day 3", "result": 0}, {"measurement": "number of cases, oxygen dosage More than 2 less than 5 L/day", "setting": "[2]; day 3", "result": 6}, {"measurement": "number of cases, oxygen dosage 0 L/day", "setting": "[2]; day 4", "result": 7}, {"measurement": "number of cases, oxygen dosage 2 or less L/day", "setting": "[2]; day 4", "result": 11}, {"measurement": "number of cases, oxygen dosage 5 or more L/day", "setting": "[2]; day 4", "result": 0}, {"measurement": "number of cases, oxygen dosage More than 2 less than 5 L/day", "setting": "[2]; day 4", "result": 5}, {"measurement": "number of cases, oxygen dosage 0 L/day", "setting": "[2]; day 5", "result": 7}, {"measurement": "number of cases, oxygen dosage 2 or less L/day", "setting": "[2]; day 5", "result": 12}, {"measurement": "number of cases, oxygen dosage 5 or more L/day", "setting": "[2]; day 5", "result": 0}, {"measurement": "number of cases, oxygen dosage More than 2 less than 5 L/day", "setting": "[2]; day 5", "result": 4}, {"measurement": "number of cases, oxygen dosage 0 L/day", "setting": "[2]; day 6", "result": 10}, {"measurement": "number of cases, oxygen dosage 2 or less L/day", "setting": "[2]; day 6", "result": 9}, {"measurement": "number of cases, oxygen dosage 5 or more L/day", "setting": "[2]; day 6", "result": 0}, {"measurement": "number of cases, oxygen dosage More than 2 less than 5 L/day", "setting": "[2]; day 6", "result": 4}, {"measurement": "number of cases, oxygen dosage 0 L/day", "setting": "[2]; day 7", "result": 10}, {"measurement": "number of cases, oxygen dosage 2 or less L/day", "setting": "[2]; day 7", "result": 9}, {"measurement": "number of cases, oxygen dosage 5 or more L/day", "setting": "[2]; day 7", "result": 0}, {"measurement": "number of cases, oxygen dosage More than 2 less than 5 L/day", "setting": "[2]; day 7", "result": 4}, {"measurement": "number of cases, oxygen dosage 0 L/day", "setting": "[2]; day 8", "result": 12}, {"measurement": "number of cases, oxygen dosage 2 or less L/day", "setting": "[2]; day 8", "result": 10}, {"measurement": "number of cases, oxygen dosage 5 or more L/day", "setting": "[2]; day 8", "result": 0}, {"measurement": "number of cases, oxygen dosage More than 2 less than 5 L/day", "setting": "[2]; day 8", "result": 1}, {"measurement": "number of cases, oxygen dosage 0 L/day", "setting": "[2]; day 9", "result": 13}, {"measurement": "number of cases, oxygen dosage 2 or less L/day", "setting": "[2]; day 9", "result": 9}, {"measurement": "number of cases, oxygen dosage 5 or more L/day", "setting": "[2]; day 9", "result": 0}, {"measurement": "number of cases, oxygen dosage More than 2 less than 5 L/day", "setting": "[2]; day 9", "result": 1}, {"measurement": "number of cases, oxygen dosage 0 L/day", "setting": "[2]; day 10", "result": 17}, {"measurement": "number of cases, oxygen dosage 2 or less L/day", "setting": "[2]; day 10", "result": 6}, {"measurement": "number of cases, oxygen dosage 5 or more L/day", "setting": "[2]; day 10", "result": 0}, {"measurement": "number of cases, oxygen dosage More than 2 less than 5 L/day", "setting": "[2]; day 10", "result": 0}, {"measurement": "number of cases, oxygen dosage 0 L/day", "setting": "[2]; day 11", "result": 18}, {"measurement": "number of cases, oxygen dosage 2 or less L/day", "setting": "[2]; day 11", "result": 5}, {"measurement": "number of cases, oxygen dosage 5 or more L/day", "setting": "[2]; day 11", "result": 0}, {"measurement": "number of cases, oxygen dosage More than 2 less than 5 L/day", "setting": "[2]; day 11", "result": 0}, {"measurement": "number of cases, oxygen dosage 0 L/day", "setting": "[2]; day 12", "result": 20}, {"measurement": "number of cases, oxygen dosage 2 or less L/day", "setting": "[2]; day 12", "result": 3}, {"measurement": "number of cases, oxygen dosage 5 or more L/day", "setting": "[2]; day 12", "result": 0}, {"measurement": "number of cases, oxygen dosage More than 2 less than 5 L/day", "setting": "[2]; day 12", "result": 0}, {"measurement": "number of cases, oxygen dosage 0 L/day", "setting": "[2]; day 13", "result": 21}, {"measurement": "number of cases, oxygen dosage 2 or less L/day", "setting": "[2]; day 13", "result": 2}, {"measurement": "number of cases, oxygen dosage 5 or more L/day", "setting": "[2]; day 13", "result": 0}, {"measurement": "number of cases, oxygen dosage More than 2 less than 5 L/day", "setting": "[2]; day 13", "result": 0}, {"measurement": "number of cases, oxygen dosage 0 L/day", "setting": "[2]; day 14", "result": 22}, {"measurement": "number of cases, oxygen dosage 2 or less L/day", "setting": "[2]; day 14", "result": 1}, {"measurement": "number of cases, oxygen dosage 5 or more L/day", "setting": "[2]; day 14", "result": 0}, {"measurement": "number of cases, oxygen dosage More than 2 less than 5 L/day", "setting": "[2]; day 14", "result": 0}, {"measurement": "number of cases with reduced proportion of lesions in the lung field on chest CT images", "setting": "[2]; out of 18 cases, administration for 14 days", "result": 13, "unit": "cases"}, {"measurement": "adverse events related to the present compound and requiring treatment", "setting": "[2]; start of administration to end of observation", "result": "no adverse events that were related to the present compound and that required treatment"}, {"measurement": "number of adverse events", "setting": "[2]; [7]", "result": 33}, {"measurement": "number of patients with adverse events", "setting": "[2]; [7]", "result": 17, "unit": "patients"}, {"measurement": "occlusion time", "setting": "[3]; 2 hours before procedure", "result": "prolongs the occlusion time in a dose-dependent manner"}, {"measurement": "bleeding time vs vehicle group", "setting": "[3]; tail lancet 20 minutes after ferric chloride", "result": "no significant difference"}]}
